# Laboratory results reported in ChEMBL document CHEMBL3832761, “MMV Pathogen Box Bioactivity Data” (2017).
# pIC50: −log10 of the molar value.
# Key:
# Plasmodium falciparum [1] = test: Antimalarial activity: Asexual Blood Stage Plasmodium falciparum 3D7 IC50 (uM); type: functional, organism-based
# Plasmodium falciparum [2] = test: Antimalarial activity: Asexual Blood Stage Plasmodium falciparum Dd2 IC50 (uM); type: functional, organism-based
# Plasmodium berghei [3] = test: Antimalarial activity: Liver Stage Plasmodium berghei sporozoite Luciferase assay: inhibition at 10 uM (%); type: functional
# Plasmodium berghei [4] = test: Antimalarial activity: Liver Stage Plasmodium berghei sporozoite Luciferase assay IC50 (uM); type: functional, organism-based
# Plasmodium falciparum [5] = test: Antimalarial activity: Gametocytes Plasmodium falciparum NF54 Gametocytes Stage V: inhibition at 10 uM (%); type: functional
# HepG2 [6] = test: Cytotoxicity data HepG2 CC20 (uM); type: functional
# HepG2 [7] = test: HepG2 CC50 (uM) Cytotoxicity; type: functional; details: Homo sapiens
# Plasmodium falciparum [8] = test: Antimalarial activity: Asexual Blood Stage Plasmodium falciparum W2 IC50 (uM); type: functional, organism-based
# Trypanosoma cruzi = test: AntiTrypanosoma cruzi activity IC50 (uM); type: functional, organism-based
# Trypanosoma brucei [9] = test: AntiTrypanosoma brucei activity T. b. brucei IC50 (uM); type: functional, organism-based
# Trypanosoma brucei [10] = test: AntiTrypanosoma brucei activity T. b. rhodesiense IC50 (uM); type: functional, organism-based
# Leishmania infantum = test: AntiLeishmania activity L. infantum (macrophages) IC50 (uM); type: functional, organism-based
# MRC5 = test: MRC5 CC50 (uM) Cytotoxicity; type: functional; details: Homo sapiens
# [11] = PMM CC50 (uM) Cytotoxicity; type: functional; details: Macrophage
compound,measurement,setting,value
COc1ccc(CN2CCOc3ccc(C(C)(O)CN(C)C)cc3C2)cc1C (configuration not stated),pIC50,Plasmodium falciparum [1],< 5.70
same,pIC50,Plasmodium falciparum [2],5.83
same,Inhibition,Plasmodium berghei [3],64%
same,pIC50,Plasmodium berghei [4],6.03
same,Inhibition,Plasmodium falciparum [5],7%
same,CC20,HepG2 [6],17.4 µM
same,CC50,HepG2 [7],> 10 µM
O=C(Nc1ccc(N2CCNCC2)nc1)c1oc(-c2ccccc2)nc1C(F)(F)F,pIC50,Plasmodium falciparum [1],5.91
same,pIC50,Plasmodium falciparum [2],5.79
same,pIC50,Plasmodium falciparum [8],5.52
same,Inhibition,Plasmodium berghei [3],78%
same,pIC50,Plasmodium berghei [4],5.59
same,Inhibition,Plasmodium falciparum [5],44%
same,CC20,HepG2 [6],13.4 µM
same,CC50,HepG2 [7],> 10 µM
CC(C)(CN)c1nc(-c2ccc(Cl)c(O)c2)c(-c2ccnc(N)n2)[nH]1,pIC50,Plasmodium falciparum [1],6.39
same,pIC50,Plasmodium falciparum [2],6.72
same,pIC50,Plasmodium falciparum [8],5.98
same,Inhibition,Plasmodium berghei [3],100%
same,pIC50,Plasmodium berghei [4],6.49
same,Inhibition,Plasmodium falciparum [5],9%
same,CC20,HepG2 [6],5.77 µM
same,CC50,HepG2 [7],> 10 µM
Cc1ccc(Oc2ccc(NC(=O)CNc3ccccc3N3CCCC3=O)cc2)cc1,pIC50,Plasmodium falciparum [1],6.32
same,pIC50,Plasmodium falciparum [2],6.22
same,pIC50,Plasmodium falciparum [8],6.19
same,Inhibition,Plasmodium berghei [3],89%
same,pIC50,Plasmodium berghei [4],5.04
same,Inhibition,Plasmodium falciparum [5],0%
same,CC20,HepG2 [6],17.5 µM
same,CC50,HepG2 [7],9.8 µM
O=C1N(Cc2cc3ccccc3s2)CC2CN(Cc3ccccc3)CCN12 (configuration not stated),pIC50,Plasmodium falciparum [1],5.94
same,pIC50,Plasmodium falciparum [2],5.90
same,pIC50,Plasmodium falciparum [8],5.88
same,Inhibition,Plasmodium berghei [3],100%
same,pIC50,Plasmodium berghei [4],6.70
same,Inhibition,Plasmodium falciparum [5],53%
same,CC20,HepG2 [6],26.4 µM
same,CC50,HepG2 [7],> 10 µM
CO/N=C(\C(=O)OC)c1ccccc1CO/N=C(\C)c1cccc(C(F)(F)F)c1,pIC50,Plasmodium falciparum [1],6.52
same,Inhibition,Plasmodium berghei [3],100%
same,pIC50,Trypanosoma cruzi,5.71
same,pIC50,Trypanosoma brucei [9],4.47
same,pIC50,Trypanosoma brucei [10],4.58
same,pIC50,Leishmania infantum,< 4.19
same,CC50,MRC5,> 64 µM
same,CC50,[11],> 64 µM
N=C(N)c1ccc(-c2cc(-c3ccccc3)on2)cc1,pIC50,Trypanosoma cruzi,5.39
same,pIC50,Trypanosoma brucei [9],5.39
same,pIC50,Trypanosoma brucei [10],5.97
same,pIC50,Leishmania infantum,5.60
same,CC20,HepG2 [6],2.64 µM
same,CC50,MRC5,12.2 µM
same,CC50,[11],4 µM
Cc1nn(C)c(C)c1NS(=O)(=O)c1c(Cl)cc(-c2ccnc(N3CCNCC3)c2)cc1Cl,pIC50,Trypanosoma cruzi,6.07
same,pIC50,Trypanosoma brucei [9],> 6.89
same,pIC50,Trypanosoma brucei [10],> 6.89
same,pIC50,Leishmania infantum,6.00
same,CC20,HepG2 [6],0.05 µM
same,CC50,MRC5,2 µM
same,CC50,[11],1 µM
Cc1cc(C(=O)Nc2cnn(Cc3ccc(Cl)cc3Cl)c2)no1,pIC50,Plasmodium falciparum [1],5.73
same,pIC50,Plasmodium falciparum [2],< 5.70
same,Inhibition,Plasmodium berghei [3],98%
same,pIC50,Plasmodium berghei [4],5.86
same,Inhibition,Plasmodium falciparum [5],11%
same,CC20,HepG2 [6],30.6 µM
same,CC50,HepG2 [7],> 10 µM
CO[C@@H]1CN(c2ccc(C#CC3(O)CN4CCC3CC4)c(Cc3ccccc3)n2)C[C@H]1O (some centres not stated),pIC50,Trypanosoma cruzi,> 6.89
same,pIC50,Trypanosoma brucei [9],4.79
same,pIC50,Trypanosoma brucei [10],5.40
same,pIC50,Leishmania infantum,4.76
same,CC20,HepG2 [6],38.4 µM
same,CC50,MRC5,> 32 µM
same,CC50,[11],> 32 µM
CC1=Nc2ccc(Cl)cc2C(c2ccccc2)N1CCNC(=O)CN(C)C (configuration not stated),pIC50,Trypanosoma cruzi,4.77
same,pIC50,Trypanosoma brucei [9],5.42
same,pIC50,Trypanosoma brucei [10],5.51
same,pIC50,Leishmania infantum,4.99
same,CC20,HepG2 [6],16.4 µM
same,CC50,MRC5,16 µM
same,CC50,[11],> 32 µM
N=C(N)Nc1ccc(-c2ccc(-c3ccc(N=C(N)N)c(Cl)c3)o2)cc1Cl,pIC50,Trypanosoma cruzi,6.18
same,pIC50,Trypanosoma brucei [9],6.22
same,pIC50,Trypanosoma brucei [10],6.70
same,pIC50,Leishmania infantum,4.99
same,CC20,HepG2 [6],13.5 µM
same,CC50,MRC5,15.4 µM
same,CC50,[11],16 µM
COc1cc(C2=NCCN2)ccc1-n1cc(-c2cccc(C3=NCCN3)c2)nn1,pIC50,Trypanosoma cruzi,< 4.49
same,pIC50,Trypanosoma brucei [9],< 4.49
same,pIC50,Trypanosoma brucei [10],5.42
same,pIC50,Leishmania infantum,< 4.49
same,CC20,HepG2 [6],>80 µM
same,CC50,MRC5,> 32 µM
same,CC50,[11],> 32 µM
O=C(NC1CC1)c1ccc(N2CCOc3ccc(Cl)cc32)s1,pIC50,Plasmodium falciparum [1],5.99
same,Inhibition,Plasmodium berghei [3],98%
same,pIC50,Plasmodium berghei [4],5.46
same,Inhibition,Plasmodium falciparum [5],18%
same,CC50,HepG2 [7],> 10 µM
c1cc(C2=NCCN2)cc(-c2cc(-c3ccc(C4=NCCN4)cc3)no2)c1,pIC50,Trypanosoma cruzi,< 4.49
same,pIC50,Trypanosoma brucei [9],5.25
same,pIC50,Trypanosoma brucei [10],5.52
same,pIC50,Leishmania infantum,< 4.49
same,CC20,HepG2 [6],4.51 µM
same,CC50,MRC5,> 32 µM
same,CC50,[11],> 32 µM
NS(=O)(=O)c1cncc(-c2ccc3nccc(-c4cn[nH]c4)c3n2)c1,pIC50,Plasmodium falciparum [1],6.22
same,pIC50,Plasmodium falciparum [2],6.20
same,pIC50,Plasmodium falciparum [8],6.14
same,Inhibition,Plasmodium berghei [3],96%
same,pIC50,Plasmodium berghei [4],5.66
same,Inhibition,Plasmodium falciparum [5],70%
same,CC20,HepG2 [6],0.49 µM
COc1cc(C2=NCCN2)ccc1-c1cn(-c2cccc(C3=NCCN3)c2)nn1,pIC50,Trypanosoma cruzi,4.60
same,pIC50,Trypanosoma brucei [9],< 4.49
same,pIC50,Trypanosoma brucei [10],5.43
same,pIC50,Leishmania infantum,< 4.49
same,CC20,HepG2 [6],22.9 µM
same,CC50,MRC5,> 32 µM
same,CC50,[11],> 32 µM
Nc1ccc(C(=O)Nc2ccc(-c3nc4ccccc4o3)cc2)cc1,pIC50,Plasmodium falciparum [1],5.81
same,pIC50,Plasmodium falciparum [2],< 5.70
same,Inhibition,Plasmodium berghei [3],89%
same,pIC50,Plasmodium berghei [4],< 5.00
same,Inhibition,Plasmodium falciparum [5],0%
same,CC20,HepG2 [6],18.2 µM
same,CC50,HepG2 [7],> 10 µM
c1ccc(Oc2ccc(-c3cc(N4CCNCC4)[nH]n3)cc2)cc1,pIC50,Trypanosoma cruzi,5.35
same,pIC50,Trypanosoma brucei [9],6.00
same,pIC50,Trypanosoma brucei [10],6.01
same,pIC50,Leishmania infantum,5.39
same,CC20,HepG2 [6],6.43 µM
same,CC50,MRC5,16 µM
same,CC50,[11],4 µM
C[C@H](C(N)=O)N1CCCC[C@H]1c1ccc(OCc2cccc(F)c2)cc1,pIC50,Plasmodium falciparum [1],< 5.70
same,pIC50,Plasmodium falciparum [2],< 5.70
same,Inhibition,Plasmodium berghei [3],95%
same,pIC50,Plasmodium berghei [4],5.87
same,Inhibition,Plasmodium falciparum [5],0%
same,CC20,HepG2 [6],>80 µM
same,CC50,HepG2 [7],> 10 µM
CC(C)(C)C(O)C(Oc1ccc(-c2ccccc2)cc1)n1cncn1 (configuration not stated) [BITERTANOL],Inhibition,Plasmodium berghei [3],46%
same,pIC50,Trypanosoma cruzi,7.22
same,pIC50,Trypanosoma brucei [9],4.48
same,pIC50,Trypanosoma brucei [10],4.55
same,pIC50,Leishmania infantum,< 4.19
same,CC50,MRC5,> 64 µM
same,CC50,[11],> 64 µM
c1ccc(Oc2ccc(-c3cc(C4CCOCC4)[nH]n3)cc2)cc1,pIC50,Trypanosoma cruzi,4.78
same,pIC50,Trypanosoma brucei [9],5.12
same,pIC50,Trypanosoma brucei [10],5.42
same,pIC50,Leishmania infantum,< 4.49
same,CC20,HepG2 [6],10.8 µM
same,CC50,MRC5,22.8 µM
same,CC50,[11],> 32 µM
c1csc(-c2cnc3sc(NCC4CCOCC4)nn23)c1,pIC50,Plasmodium falciparum [1],5.86
same,pIC50,Plasmodium falciparum [2],5.95
same,Inhibition,Plasmodium berghei [3],58%
same,pIC50,Plasmodium berghei [4],< 5.00
same,Inhibition,Plasmodium falciparum [5],18%
same,CC20,HepG2 [6],30 µM
same,CC50,HepG2 [7],> 10 µM
O=C(Nc1ccc2c(c1)B(O)OC2)c1ccccc1C(F)(F)F,pIC50,Trypanosoma cruzi,6.57
same,pIC50,Trypanosoma brucei [9],6.82
same,pIC50,Trypanosoma brucei [10],6.64
same,pIC50,Leishmania infantum,5.85
same,CC20,HepG2 [6],0.41 µM
same,CC50,MRC5,> 32 µM
same,CC50,[11],16 µM
C[C@H](C(N)=O)N1CCCC[C@@H]1c1ccc(OCc2cccc(F)c2)cc1,Inhibition,Plasmodium berghei [3],99%
same,pIC50,Plasmodium berghei [4],5.75
same,Inhibition,Plasmodium falciparum [5],5%
same,CC20,HepG2 [6],21.8 µM
same,CC50,HepG2 [7],> 10 µM
CC1COC(Cn2cncn2)(c2ccc(Oc3ccc(Cl)cc3)cc2Cl)O1 (configuration not stated) [DIFENOCONAZOLE],Inhibition,Plasmodium berghei [3],85%
same,pIC50,Trypanosoma cruzi,8.00
same,pIC50,Trypanosoma brucei [9],4.49
same,pIC50,Trypanosoma brucei [10],4.58
same,pIC50,Leishmania infantum,4.35
same,CC50,MRC5,30.9 µM
same,CC50,[11],> 64 µM
CCc1nn(C)c(C(=O)NCc2ccc(Oc3ccc(C)cc3)cc2)c1Cl [TOLFENPYRAD],Inhibition,Plasmodium berghei [3],94%
same,pIC50,Trypanosoma cruzi,5.27
same,pIC50,Trypanosoma brucei [9],4.48
same,pIC50,Trypanosoma brucei [10],4.69
same,pIC50,Leishmania infantum,4.34
same,CC50,MRC5,56 µM
same,CC50,[11],48 µM
C[C@]1(O)C[C@@H](c2nc(-c3ccc4ccc(-c5ccccc5)nc4c3)c3c(N)nccn32)C1 [LINSITINIB],pIC50,Plasmodium falciparum [1],< 5.70
same,pIC50,Plasmodium falciparum [2],< 5.70
same,Inhibition,Plasmodium berghei [3],98%
same,pIC50,Plasmodium berghei [4],6.44
same,Inhibition,Plasmodium falciparum [5],16%
same,CC20,HepG2 [6],4.67 µM
same,CC50,HepG2 [7],> 10 µM
